{"source": "paper PMC8159961", "about": "“Exploring protein hotspots by optimized fragment pharmacophores” (Nature Communications, 2021)", "key": {"[1]": {"target": "T1, human 5-HT1A receptor (Homo sapiens, UniProt P08908)", "T1 construct": "expressed in transfected cells", "T1 sequence (P08908 1-422)": "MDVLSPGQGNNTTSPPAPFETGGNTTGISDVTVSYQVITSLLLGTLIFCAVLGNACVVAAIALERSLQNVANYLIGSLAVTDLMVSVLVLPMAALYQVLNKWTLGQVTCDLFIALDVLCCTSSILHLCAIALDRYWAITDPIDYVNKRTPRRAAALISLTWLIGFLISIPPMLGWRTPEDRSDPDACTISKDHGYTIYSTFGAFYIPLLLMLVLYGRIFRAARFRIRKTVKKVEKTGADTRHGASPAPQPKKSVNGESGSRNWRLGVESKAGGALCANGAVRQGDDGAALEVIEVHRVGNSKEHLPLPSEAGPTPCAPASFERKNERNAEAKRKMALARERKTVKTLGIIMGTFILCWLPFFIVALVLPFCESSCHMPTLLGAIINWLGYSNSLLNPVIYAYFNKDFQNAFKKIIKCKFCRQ", "test": "GPCR radioligand binding assay, [3H]-8-OH-DPAT displacement, HEK293 membranes"}, "[2]": {"target": "T2, human 5-HT6 receptor (Homo sapiens, UniProt P50406)", "T2 construct": "expressed in transfected cells", "T2 sequence (P50406 whole entry)": "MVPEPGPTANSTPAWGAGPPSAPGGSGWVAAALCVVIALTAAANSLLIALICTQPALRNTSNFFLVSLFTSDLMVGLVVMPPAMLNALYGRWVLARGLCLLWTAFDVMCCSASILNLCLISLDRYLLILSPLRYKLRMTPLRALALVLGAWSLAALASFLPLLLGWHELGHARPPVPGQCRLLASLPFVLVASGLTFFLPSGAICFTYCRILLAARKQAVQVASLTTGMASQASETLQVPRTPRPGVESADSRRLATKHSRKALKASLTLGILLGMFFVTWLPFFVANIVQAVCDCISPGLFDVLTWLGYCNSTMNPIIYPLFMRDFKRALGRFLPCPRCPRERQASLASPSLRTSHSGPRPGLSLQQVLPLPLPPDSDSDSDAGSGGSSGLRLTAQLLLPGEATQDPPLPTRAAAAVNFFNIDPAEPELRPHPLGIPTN", "test": "GPCR radioligand binding assay, [3H]-LSD displacement, HEK293 membranes"}, "[3]": {"target": "T3, human 5-HT7b receptor (Homo sapiens, UniProt P34969)", "T3 construct": "expressed in transfected cells", "T3 sequence (P34969 1-432)": "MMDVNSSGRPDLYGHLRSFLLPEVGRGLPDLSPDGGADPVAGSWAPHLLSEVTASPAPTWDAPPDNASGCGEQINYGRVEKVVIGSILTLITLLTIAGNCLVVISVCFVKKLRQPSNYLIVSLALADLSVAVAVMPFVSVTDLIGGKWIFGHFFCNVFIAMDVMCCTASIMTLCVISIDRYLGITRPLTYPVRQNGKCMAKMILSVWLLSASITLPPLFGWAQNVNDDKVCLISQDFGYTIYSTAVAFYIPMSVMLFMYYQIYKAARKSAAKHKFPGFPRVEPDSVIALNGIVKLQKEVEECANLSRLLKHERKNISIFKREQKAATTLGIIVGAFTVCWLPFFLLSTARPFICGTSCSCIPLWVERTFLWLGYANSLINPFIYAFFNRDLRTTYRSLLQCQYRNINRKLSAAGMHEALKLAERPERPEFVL", "test": "GPCR radioligand binding assay, [3H]-5-CT displacement, HEK293 membranes"}, "[4]": {"target": "T4, human thrombin (Homo sapiens, UniProt P00734)", "T4 construct": "human thrombin; purchased Sigma-Aldrich", "test": "Protease inhibitory assay, chromogenic substrate S-2238", "format": "biochemical", "conditions": "plate layout, label = plate position; Cheng-Prusoff, Km 2.6 µM; read-out: Thrombin Ki"}, "[5]": {"target": "T5, SARS-CoV-2 NSP3 macrodomain (Severe acute respiratory syndrome coronavirus 2, UniProt P0DTD1)", "test": "NSP3 macrodomain HTRF assay, displacement of ADP-ribose-conjugated biotin peptide", "format": "binding"}, "[6]": {"test_system": "SARS-CoV-2", "test": "microbe, parasite or virus in culture", "format": "cell-based"}, "[7]": {"target": "T5, SARS-CoV-2 NSP3 macrodomain", "test": "X-ray fragment screening (XChem, crystal soaking)", "format": "binding"}, "[8]": {"target": "T6, recombinant SETD2 (Homo sapiens, UniProt Q9BYW2)", "T6 construct": "purchased BPS Bioscience 52060", "T6 sequence (Q9BYW2 1418-1714 limits assumed)": "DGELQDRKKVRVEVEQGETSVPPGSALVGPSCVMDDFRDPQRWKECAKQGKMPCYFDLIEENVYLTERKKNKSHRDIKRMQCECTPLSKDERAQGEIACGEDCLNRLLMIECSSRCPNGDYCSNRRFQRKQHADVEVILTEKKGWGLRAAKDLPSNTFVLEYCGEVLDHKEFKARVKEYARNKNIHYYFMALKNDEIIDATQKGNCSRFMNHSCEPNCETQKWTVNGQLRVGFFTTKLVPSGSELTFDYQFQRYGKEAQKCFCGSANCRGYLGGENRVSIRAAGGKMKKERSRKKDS", "test": "SETD2 Chemiluminescence assay (H3K36 tri-methylation)", "format": "biochemical", "conditions": "for SETD2 signal, blank corrected, normalized to positive ctrl: internal control"}, "[9]": {"test_system": "SETD2", "conditions": "cited from earlier work"}, "[10]": {"test_system": "COVID-19", "design": "method as in PMID 33264556", "conditions": "trial discontinued in July 2020; cited from earlier work"}}, "note": "“And” between values parts separate entries of the source, which are not always exact repeats. Equal entries are not always repeated. “Also recorded” adds a separate entry of the source. Where two headings read alike, the source gives them in different places.", "data": [{"molecule": "NC(=O)N1CCC(C(=O)O)CC1", "note": "[SX048]", "values": [{"measurement": "inhibition at 10 µM", "setting": "[1]; 10 µM, read-out: 5-HT1A % Inhibition by plate position", "value": 0.751, "unit": "%"}, {"measurement": "inhibition at 10 µM", "setting": "[1]; 5-HT1A, average of exp_1 and exp_2, read-out: %inh 5-HT1A average", "value": 0.751, "unit": "%"}, {"measurement": "inhibition at 10 µM", "setting": "[1]; 5-HT1A, average, values below 0 and above 100% were set as 0 and 100, read-out: %inh 5-HT1A corrected*", "value": 0.751, "unit": "%"}, {"measurement": "inhibition at 10 µM", "setting": "[1]; 5-HT1A, replicate exp_1, read-out: %inh 5-HT1A exp_1", "value": 1.5, "unit": "%"}, {"measurement": "inhibition at 10 µM", "setting": "[1]; 5-HT1A, replicate exp_2, read-out: %inh 5-HT1A exp_2", "value": 0, "unit": "%"}, {"measurement": "inhibition at 10 µM", "setting": "[2]; 10 µM, read-out: 5-HT6 % Inhibition by plate position", "value": 47, "unit": "%"}, {"measurement": "inhibition at 10 µM", "setting": "[2]; 5-HT6, average of exp_1 and exp_2, read-out: %inh 5-HT6 average", "value": 47, "unit": "%"}, {"measurement": "inhibition at 10 µM", "setting": "[2]; 5-HT6, average, values below 0 and above 100% were set as 0 and 100, read-out: %inh 5-HT6 corrected*", "value": 47, "unit": "%"}, {"measurement": "inhibition at 10 µM", "setting": "[2]; 5-HT6, replicate exp_1, read-out: %inh 5-HT6 exp_1", "value": 56, "unit": "%"}, {"measurement": "inhibition at 10 µM", "setting": "[2]; 5-HT6, replicate exp_2, read-out: %inh 5-HT6 exp_2", "value": 38, "unit": "%"}, {"measurement": "inhibition at 10 µM", "setting": "[3]; 10 µM, read-out: 5-HT7 % Inhibition by plate position", "value": 0, "unit": "%"}, {"measurement": "inhibition at 10 µM", "setting": "[3]; 5-HT7, average of exp_1 and exp_2, read-out: %inh 5-HT7 average", "value": -6.41, "unit": "%"}, {"measurement": "inhibition at 10 µM", "setting": "[3]; 5-HT7, average, values below 0 and above 100% were set as 0 and 100, read-out: %inh 5-HT7 corrected*", "value": 0, "unit": "%"}, {"measurement": "inhibition at 10 µM", "setting": "[3]; 5-HT7, replicate exp_1, read-out: %inh 5-HT7 exp_1", "value": -8, "unit": "%"}, {"measurement": "inhibition at 10 µM", "setting": "[3]; 5-HT7, replicate exp_2, read-out: %inh 5-HT7 exp_2", "value": -4.44, "unit": "%"}, {"measurement": "Ki", "setting": "[4]", "value": 0.301, "unit": "mM"}, {"measurement": "% SARS-CoV-2 macrodomain inhibition", "setting": "[5]; 98 µM, replicates", "value": 4.2, "unit": "%"}, {"measurement": "inhibition at 98 µM", "setting": "[5]; 98 µM, replicates", "value": 5.1, "unit": "%"}, {"measurement": "% SARS-CoV-2 macrodomain inhibition", "setting": "[5]; 195 µM, replicates", "value": "3.7% and 10.3%"}, {"measurement": "% SARS-CoV-2 macrodomain inhibition", "setting": "[5]; 391 µM, replicates", "value": "5.0% and 0.65%"}, {"measurement": "% SARS-CoV-2 macrodomain inhibition", "setting": "[5]; 781 µM, replicates", "value": "4.2% and 0.6%"}, {"measurement": "% SARS-CoV-2 macrodomain inhibition", "setting": "[5]; 1563 µM, replicates", "value": 5.8, "unit": "%"}, {"measurement": "inhibition at 1563 µM", "setting": "[5]; 1563 µM, replicates", "value": 6.6, "unit": "%"}, {"measurement": "% SARS-CoV-2 macrodomain inhibition", "setting": "[5]; 3125 µM, replicates", "value": "6.5% and 15.4%"}, {"measurement": "% SARS-CoV-2 macrodomain inhibition", "setting": "[5]; 6250 µM, replicates", "value": 80.4, "unit": "%"}, {"measurement": "inhibition at 6250 µM", "setting": "[5]; 6250 µM, replicates", "value": 84.7, "unit": "%"}, {"measurement": "% SARS-CoV-2 macrodomain inhibition", "setting": "[5]; 12500 µM, replicates", "value": 102.4, "unit": "%"}, {"measurement": "inhibition at 12500 µM", "setting": "[5]; 12500 µM, replicates", "value": 102, "unit": "%"}, {"measurement": "NSP3 inhibition (in words)", "setting": "[5]; HTRF assay, at 5 mM concentration", "value": "significant"}, {"measurement": "IC50", "setting": "[5]; IC50, SARS-CoV-2 macrodomain inhibition", "value": 5.54, "unit": "mM"}, {"measurement": "IC50", "setting": "[5]; NSP3 IC50, HTRF assay", "value": 5.5, "unit": "mM"}, {"measurement": "viral copy numbers normalized to the control (untreated infected cells)", "setting": "[6]; 10 uM, replicates", "value": "1.6898 and 2.197 and 1.352"}, {"measurement": "Inhibition (%) of viral copy numbers", "setting": "[6]; 100 uM, replicates", "value": 8.992, "unit": "%"}, {"measurement": "viral copy numbers normalized to the control (untreated infected cells)", "setting": "[6]; 100 uM, replicates", "value": "1.075 and 1.992 and 0.9101"}, {"measurement": "Inhibition (%) of viral copy numbers", "setting": "[6]; 250 uM, replicates", "value": "15.88% and 50.18% and 14.44%"}, {"measurement": "viral copy numbers normalized to the control (untreated infected cells)", "setting": "[6]; 250 uM, replicates", "value": "0.8412 and 0.4982 and 0.8556"}, {"measurement": "Inhibition (%) of viral copy numbers", "setting": "[6]; 500 uM, replicates", "value": "81.12% and 43.68% and 14.44%"}, {"measurement": "viral copy numbers normalized to the control (untreated infected cells)", "setting": "[6]; 500 uM, replicates", "value": "0.1888 and 0.5632 and 0.8556"}, {"measurement": "Inhibition (%) of viral copy numbers", "setting": "[6]; 750 uM, replicates", "value": "51.99% and 82.49% and 35.02%"}, {"measurement": "viral copy numbers normalized to the control (untreated infected cells)", "setting": "[6]; 750 uM, replicates", "value": "0.4801 and 0.1751 and 0.6498"}, {"measurement": "Inhibition (%) of viral copy numbers", "setting": "[6]; 1000 uM, replicates", "value": "41.84% and 41.07%"}, {"measurement": "viral copy numbers normalized to the control (untreated infected cells)", "setting": "[6]; 1000 uM, replicates", "value": "0.5067 and 0.5816 and 0.5893"}, {"measurement": "inhibition at 10 µM", "setting": "[6]; Severe acute respiratory syndrome coronavirus 2, Vero C1008, 10 uM, replicates, read-out: Inhibition (%) of viral copy numbers", "value": 0, "unit": "%"}, {"measurement": "inhibition at 1000 µM", "setting": "[6]; Severe acute respiratory syndrome coronavirus 2, Vero C1008, 1000 uM, replicates, read-out: Inhibition (%) of viral copy numbers", "value": 49.3, "unit": "%"}, {"measurement": "antiviral activity in the cellular assay (in words)", "setting": "[6]; infected Vero E6 cells", "value": "high micromolar range; also recorded: Significant antiviral activities"}, {"measurement": "X-ray screen result, binding site", "setting": "[7]", "value": "identified in the active site"}]}, {"molecule": "Nc1ncnc2c1ncn2[C@@H]1O[C@H](C[C@@H](N)CC[C@H](N)C(=O)O)[C@@H](O)[C@H]1O", "note": "[Sinefungin, reference compound]", "values": [{"measurement": "inhibition of SETD2 activity (control, in words)", "setting": "[8]; 200 µM Sinefungin", "value": "complete inhibition"}, {"measurement": "SETD2 signal, blank corrected, normalized to positive ctrl", "setting": "[8]; 200 µM", "value": 0.074}, {"measurement": "SETD2 signal, blank corrected, normalized to positive ctrl", "setting": "[8]; 800 µM", "value": 0.0136}, {"measurement": "activity as inhibitor of SETD2 (in words)", "setting": "[9]", "value": "moderately active"}]}, {"molecule": "lopinavir/ritonavir", "values": [{"measurement": "clinical trial outcome against COVID-19", "setting": "[10]", "value": "ineffectiveness"}]}]}
